Results published in patent US5480893A, “Inhibitors of farnesyl protein transferase” (Merck & Co., Inc., priority 1994, dated 1996).

Key:
[1] = target: T1, Farnesyl-protein transferase (FTase) from bovine brain (Bos taurus, UniProt P29702+P49355); assay: In vitro inhibition of Ras Farnesyl Transferase; assay type: biochemical; details: Ras-CVLS 3.5 μM, [3H]FPP 0.25 μM, partially purified bovine brain FTase; read-out: IC50 (concentration of compound which gives 50% inhibition of FTase)
T1 construct: Farnesyl-protein transferase (FTase) from bovine brain; from tissue; host or cells: bovine brain, partially purified (DEAE-Sephacel, N-octyl agarose, Mono Q HPLC)
Experimental: In vitro inhibition of Ras Farnesyl Transferase […] Ras-CVLS at 3.5 μ[…], and the indicated compounds were incubated with this partially purified enzyme preparation. The FTase data presented below is a measurement of the ability of the test compound to inhibit Ras farnesylation in vitro. | *(IC50 is the concentration of compound which gives 50% inhibition o | FTase under the described assay conditions)

[2] = system: Ras farnesylation in the v-ras cell line (Ha-ras p21); assay: In vivo ras farnesylation assay (v-ras cell line); assay type: cell-based
Experimental: In vivo ras farnesylation assay
The cell line used in this assay was the v-ras line, which expressed vital Ha-ras p21. The assay was performed essentially as described in DeClue, J. E. et. al., Cancer Reasearch 51, 712-717, (1991). Cells in 10 cm dishes at 50-75% confluency were treated with the test compound (final concentration of solvent, methanol or dimethyl sulfoxide, was 0.1%). After 4 hours at 37° C., the cells were labelled in 3 ml methionine-free DMEM supplemeted with 10% regular DMEM, 2% fetal bovine serum and 400 μCi[^35 S] methionine (1000 Ci/mmol). After an additional 20 hours, the cells were lysed in 1 ml lysis buffer (1% NP40/20 nnM HEPES, pH 7.5/5 mM MgCl2 /1 mM DTT/10 μg/ml aprotinen/2 μg/ml leupeptin/2 μg/ml antipain/0.5 mM PMSF) and the lysates cleared by centrifugation at 100,000×g for 45 min. Aliqouts of lysates containing equal numbers of acid-precipitable counts were brought to 1 ml with IP buffer (lysis buffer lacking DTT) and immunoprecipitated with the ras-specific monoclonal antibody Y13-259 (Furth, M. E. et al., J. Virol. 43, 294-304, (1982)). Following a 2 hour antibody incubation at 4° C., 200 μl of a 25% suspension of protein A-Sepharose coated with rabbit anti rat IgG was added for 45 min. […]

Ras farnesylation = details: literature; cited from earlier work

Compound | IC50 [1] | Inhibition of Ras farnesylation in vivo (Ras farnesylation) | further results
CC[C@H](C)[C@H](NC[C@@H](NC[C@@H](N)CS)[C@@H](C)CC)C(=O)N[C@H]1CCOC1=O [N-[2(S)-(2(R)-amino-3-mercaptopropylamino)-3(S)-methylpentyl]isoleucyl-homoserine lactone] | 950 nM |  | inhibition at 100 µM ([2]; at 100 μM test concentration, 4 hours then additional 20 hours with [35S]methionine): 90%
CC[C@H](C)[C@H](NC[C@@H](N)CS)C(=O)N[C@H](C(=O)N[C@@H](CCCO)C(=O)O)[C@@H](C)CC | 24 nM |  | 
CC[C@H](C)[C@H](NC[C@@H](N)CS)C(=O)N[C@H](C(=O)N[C@H]1CCCOC1=O)[C@@H](C)CC [N-[N'-(2(R)-amino-3-mercaptopropyl)isoleucyl-isoleucyl]-3(S)-aminotetrahydropyran-2-one] | 470 nM |  | 
CC[C@H](C)C(=O)O[C@H]1C[C@@H](C)C=C2C=C[C@H](C)[C@H](CC[C@@H]3C[C@@H](O)CC(=O)O3)[C@H]21 [lovastatin] |  | Inhibition of Ras farnesylation in vivo has been demonstrated | 
CC[C@H](C)[C@H](NC[C@@H](NC[C@@H](N)CS)[C@@H](C)CC)C(=O)N[C@@H](CCO)C(=O)O [N-[2(S)-(2(R)-amino-3-mercaptopropylamino)-3(S)-methylpentyl]isoleucyl-homoserine] | 12 nM |  | Inhibition of Ras farnesylation ([2]; result in words, test concentration not printed for this compound): No Inhibition
CC[C@H](C)C(=O)O[C@H]1CCC=C2C=C[C@H](C)[C@H](CC[C@@H]3C[C@@H](O)CC(=O)O3)[C@H]21 [compactin] |  | Inhibition of Ras farnesylation in vivo has been demonstrated | 
